The subject of data set [1] is humans. The following applies: cited from earlier work.
Data set [2] has as its system platelets. The following applies: 4 mg/kg/day; cited from earlier work.
Another data set has as its system animal. The following applies: 500 mg/kg, bw/day for 3 months dosing; cited from earlier work.
Data set [3] has as its system humans. The following applies: cited from earlier work. The source holds these as a separate data set.
In data set [4] the test system is platelets. Kind of data set: Platelet function by whole blood/optical lumi-aggregometer after capsule intake. It counts as in vivo, human. The protocol: Platelet reactivity during clinical screening was assessed by a PFA-100 (Siemens, Deerfield, Ill.), which measures platelet function by simulating arterial hemostasis under blood flow shear stress. During the intervention, platelet function was assessed by a whole blood/optical lumi-aggregometer (Chrono-log Model 700, Havertown, Pa.). Briefly, platelet aggregation was measured via electrical impedence (or electrical resistance), whereas lumi-aggregometry was used to examine aggregation together with adenosine triphosphate (hereafter, “ATP”) release, which is determined with firefly luciferin-luciferase system. […] One of the following agonists was used to stimulate platelets: collagen (1 μL and 5 μL), AA (10 μL) or ADP (10 μL). ATP release was measured only when platelets were activated with ADP. The aggregation was measured over a period of six minutes, following the addition of an agonist.

Data set [5] can be described thus: Plasma resveratrol concentrations (HPLC) after capsule intake. The following applies: 90 mg, median (interquartile range), n=30. It counts as in vivo, human. The method, then:
The study included two separate investigations: a one hour study and a two hour study (FIG. 1). […] The two hour study was designed to fully assess and compare the responses to trans-res and ResArgin™.
Participants were randomized by block design to consumed trans-res or ResArgin™ in random order. Randomization was performed by the study coordinator following a predetermined plan formulated via a web-based random number generator. […] The study included two separate investigations: a one hour study and a two hour study (FIG. 6). During each study visit, which took place after an overnight fast, a baseline measurement of PAT and a blood sample were collected, followed by consumption of the assigned treatment. During the one hour study, PAT measurements and blood samples were collected thirty and sixty minutes after the capsules were consumed. During the two hour study, a PAT measurement and blood sample were taken two hours after the capsules were consumed.
Briefly, plasma was treated with acidified methanol [0.5% (v/v) of acetic acid in methanol; precooled to −20° C.] containing an appropriate recovery standard. The mixture was stored at −80 C for 12 hours to allow for cryo-assisted protein precipitation, and then centrifuged for 15 min at 16,500×g. […]

In a further data set the test system is cyclooxygenase (COX). The following applies: in vitro studies; cited from earlier work.
The subject of data set [6] is platelets. To be noted: 10 mg daily for three months; cited from earlier work.
Another data set concerns postmenopausal women. In words: Microvascular function by peripheral arterial tonometry (Endo-PAT2000), randomized double-blind crossover trial. It counts as in vivo, human. To be noted: combined data; univariate ANOVA with Bonferroni post hoc.
Data set [7] has as its system human umbilical vein endothelial cells. The following applies: 1 μM; cited from earlier work.
The subject of data set [8] is platelets. The following applies: 10-1,000 μM in vitro; cited from earlier work.
Where [9] appears, read: 10 mg per day for three months, stable coronary artery disease patients.
Setting [10] is: 1 μL collagen, one hour post consumption vs baseline.
Where [11] appears, read: 10 μL arachidonic acid, one hour after intake vs baseline.

“Also recorded” adds a separate entry of the source. Like-named read-outs stand apart in the source and are kept apart here.

Take `Oc1ccc(C=Cc2cc(O)cc(O)c2)cc1` [Resveratrol, 3,5,4′-trihydroxystilbene]: the “Plasminogen activator inhibitor type 1 (PAI-1)” value in the data set with humans [1] (8 mg daily for six months, then 16 mg per day for six months) was “significant decrease”. For the same compound, in the data set on humans [1] (250 mg for three months), the Total cholesterol entry is listed as “decrease”. Also, the “Low density lipoprotein (LDL) cholesterol” value with humans [1] (daily intake of 8 mg for six months) was “Reduction”. In addition, the ADP-induced platelet aggregation entry with platelets [2] was “inhibited”. In addition, the “Toxicity in animal studies” value with animal was “no toxicity effect”. Also, the FMD result in the data set on humans [3] (setting [9]) and in the data set on humans [3] (75 mg daily for six weeks) was “enhanced FMD response” each time.
As for `Oc1ccc(/C=C/c2cc(O)cc(O)c2)cc1` [trans-res, Trans-resveratrol], the “Lag time of platelet aggregation” value in the data set on platelets [4] (setting [10]) is listed as “significant increase”. Moreover, the “Slope of platelet aggregation” value in the data set with platelets [4] (setting [10]) was “not for the trans-res group”. Also, the Platelet function changes result in the data set on platelets [4] (5 μL collagen, one hour post consumption vs baseline) was “no significant changes”. The “Slope, lumi-aggregometry” value in the data set on platelets [4] (10 μL ADP, one hour post consumption vs baseline) is “significant decrease”. The “Area under the curve (AUC) of aggregation” value with platelets [4] (setting [11]) is reported as “no changes were noted”. In addition, the Maximum aggregation result in the data set on platelets [4] (setting [11]) was “no changes were noted”. Moreover, the Plasma resveratrol concentration in [5] (30 minutes after intake) was 2.04 (0.82, 2.54); in data set [5] (60 minutes after intake), 2.65 (1.69, 3.44). For the same compound, in the data set with cyclooxygenase (COX), the “Cyclooxygenase (COX) activity” value is listed as “can inhibit”. In addition, the Platelet aggregation result with platelets [6] is “significantly reduced”; in the data set with platelets [8], “significantly reduced aggregation in a dose dependent fashion”. In the data set on postmenopausal women, the “FRHI one and two hours post-consumption compared to baseline (significance)” value is on record as “No differences were observed; also recorded: no changes were noted”. In addition, the “RHI one hour after intake compared to baseline (significance)” value in the data set on postmenopausal women is reported as “not observed”. Also, the “Expression of eNOS” value in data set [7] is given as “up-regulated”. Moreover, the FMD entry is given as “significant improvement in FMD” in the data set with humans [3] (setting [9]); “significant increase in FMD” in the data set with humans [3] (75 mg daily for six weeks); “significant increase in FMD” in the data set on humans [3] (75 mg, one hour post-consumption); “increase in FMD” in the data set with humans [3] (single dose of 30, 90 and 270 mg, one hour after consumption).
